# Values quoted from earlier work in US11446277B2, “Penetrating pain relief cream” (priority 2019, dated 2022).
# Columns and labels:
# [1] = system: aggressive human breast cancer cells; conditions: in vitro
structure (smiles),measurement,setting,value
"C=C(C)[C@@H]1CCC(C)=C[C@H]1c1c(O)cc(CCCCC)cc1O [CBD, Cannabidiol]",growth of aggressive human breast cancer cells,[1],reduce growth
same,invasiveness of aggressive human breast cancer cells,[1],reduce their invasiveness
same,analgesic properties,animal studies,analgesic properties
same,anti-inflammatory activity,animal studies,anti-inflammatory activity
same,sedation,animal tests,sedative effects
same,growth of bacteria,bacteria,inhibit the growth of bacteria
